# Inconclusive results and toxic doses are left out.
# Test system: P388 leukemia ip, CD2F1 mice, survival T/C
# Test: NCI In Vivo Anticancer Drug Screen. Data for tumor model P388 Leukemia (intraperitoneal) in CD2F1 (CDF1) mice
# Details: endpoint: median survival time, higher = longer survival
# How it was run: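 Mice carrying the transplanted tumor received test compound or vehicle. Survival was recorded in each group, and the value is the treated-group measurement divided by that of the vehicle-treated control group.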
# [1] = dose: 60.0 mg/kg/injection, schedule: Q01DX005 (ip), vehicle: saline with Tween-80
# [2] = dose: 120.0 mg/kg/injection, schedule: Q01DX005 (ip), vehicle: saline with Tween-80
# [3] = dose: 50.0 mg/kg/injection, schedule: Q01DX009 (ip), vehicle: saline
# [4] = dose: 100.0 mg/kg/injection, schedule: Q01DX009 (ip), vehicle: saline
# [5] = dose: 200.0 mg/kg/injection, schedule: Q01DX009 (ip), vehicle: saline
# [6] = dose: 50.0 mg/kg/injection, schedule: Q01DX009 (ip), vehicle: saline with Tween-80
# [7] = dose: 100.0 mg/kg/injection, schedule: Q01DX009 (ip), vehicle: saline with Tween-80
# [8] = dose: 200.0 mg/kg/injection, schedule: Q01DX009 (ip), vehicle: saline with Tween-80
# [9] = dose: 50.0 mg/kg/injection, schedule: Q01DX009 (ip), vehicle: Klucel (hydroxypropylcellulose) (HPC)
# [10] = dose: 100.0 mg/kg/injection, schedule: Q01DX009 (ip), vehicle: Klucel (hydroxypropylcellulose) (HPC)
# [11] = dose: 200.0 mg/kg/injection, schedule: Q01DX009 (ip), vehicle: Klucel (hydroxypropylcellulose) (HPC)
# [12] = dose: 50.0 mg/kg/injection, schedule: Q01DX005 (ip), vehicle: Klucel (hydroxypropylcellulose) (HPC)
# [13] = dose: 100.0 mg/kg/injection, schedule: Q01DX005 (ip), vehicle: Klucel (hydroxypropylcellulose) (HPC)
# [14] = dose: 200.0 mg/kg/injection, schedule: Q01DX005 (ip), vehicle: Klucel (hydroxypropylcellulose) (HPC)
# [15] = dose: 240.0 mg/kg/injection, schedule: Q01DX005 (ip), vehicle: saline with Tween-80
smiles,measurement,setting,value
C1=C(c2ccccc2)[P+](c2ccccc2)(c2ccccc2)C=C(c2ccccc2)[P+]1(c1ccccc1)c1ccccc1,T/C,"dose: 16.5 mg/kg/injection, schedule: Q04DX003 (ip), vehicle: saline",109 % of control
same,T/C,"dose: 25.0 mg/kg/injection, schedule: Q04DX003 (ip), vehicle: saline",109 % of control
same,T/C,"dose: 37.5 mg/kg/injection, schedule: Q04DX003 (ip), vehicle: saline",109 % of control
COC12CCCC3(OCCO3)C1C(Cl)C2Cl (centres undefined),T/C,[1],98 % of control
same,T/C,[2],88 % of control
CC(=O)OCC1OC(Oc2ncccn2)C(OC(C)=O)C1OC(C)=O (centres undefined),T/C,[3],98 % of control
same,T/C,"dose: 50.0 mg/kg/injection, schedule: Q01DX009 (ip), vehicle: suspension in saline",100 % of control
same,T/C,[4],103 % of control
same,T/C,"dose: 100.0 mg/kg/injection, schedule: Q01DX009 (ip), vehicle: suspension in saline",99 % of control
same,T/C,[5],100 % of control
same,T/C,"dose: 200.0 mg/kg/injection, schedule: Q01DX009 (ip), vehicle: suspension in saline",99 % of control
same,T/C,"dose: 400.0 mg/kg/injection, schedule: Q01DX009 (ip), vehicle: saline",99 % of control
same,T/C,"dose: 400.0 mg/kg/injection, schedule: Q01DX009 (ip), vehicle: suspension in saline",96 % of control
COCc1cn[nH]n1,T/C,"dose: 60.0 mg/kg/injection, schedule: Q01DX005 (ip), vehicle: saline",100 % of control
same,T/C,"dose: 120.0 mg/kg/injection, schedule: Q01DX005 (ip), vehicle: saline",99 % of control
same,T/C,"dose: 240.0 mg/kg/injection, schedule: Q01DX005 (ip), vehicle: saline",104 % of control
COc1ccc(N=NC2C(=O)N(C(=O)c3ccncc3)N=C2C)cc1 (centres undefined),T/C,[6],95 % of control
same,T/C,[7],95 % of control
same,T/C,[8],96 % of control
CCC12Nc3ccccc3C(CC)(C1=O)C(c1ccccc1)=C2c1ccccc1 (centres undefined),T/C,[9],115 % of control
same,T/C,[10],106 % of control
same,T/C,[11],115 % of control
CCCCOC(=O)c1ccc(NC(=O)Nc2cc(C)ccc2C)cc1,T/C,[6],96 % of control
same,T/C,[7],94 % of control
same,T/C,[8],91 % of control
CCC(/C=C/c1ccccc1)=N\NC(=O)c1ccc(C)cc1,T/C,"dose: 6.25 mg/kg/injection, schedule: Q01DX005 (ip), vehicle: saline with Tween-80",98 % of control
same,T/C,"dose: 12.5 mg/kg/injection, schedule: Q01DX005 (ip), vehicle: saline with Tween-80",92 % of control
same,T/C,"dose: 25.0 mg/kg/injection, schedule: Q01DX005 (ip), vehicle: saline with Tween-80",89 % of control
CC1CCCN2C(=O)CN(Cc3ccccc3)CC(=O)N12 (centres undefined),T/C,"dose: 50.0 mg/kg/injection, schedule: Q01DX005 (ip), vehicle: saline with Tween-80",100 % of control
same,T/C,"dose: 100.0 mg/kg/injection, schedule: Q01DX005 (ip), vehicle: saline with Tween-80",100 % of control
same,T/C,"dose: 200.0 mg/kg/injection, schedule: Q01DX005 (ip), vehicle: saline with Tween-80",100 % of control
COc1ccc(C=Nc2ccccc2)cc1,T/C,[7],100 % of control
same,T/C,[8],118 % of control
same,T/C,"dose: 400.0 mg/kg/injection, schedule: Q01DX009 (ip), vehicle: saline with Tween-80",118 % of control
CCCCCCCCCCCCCCCCS(=O)(=O)N/N=C(/c1ccc(OC)c(OC)c1)N1CCCCC1,T/C,"dose: 50.0 mg/kg/injection, schedule: Q01DX009 (ip), vehicle: other",102 % of control
same,T/C,"dose: 100.0 mg/kg/injection, schedule: Q01DX009 (ip), vehicle: other",91 % of control
same,T/C,"dose: 200.0 mg/kg/injection, schedule: Q01DX009 (ip), vehicle: other",93 % of control
FC(F)(F)C(F)(F)C(F)(F)c1nnc(-c2ccc(Cl)cc2Cl)o1,T/C,"dose: 100.0 mg/kg/injection, schedule: Q01DX001 (ip), vehicle: saline with Tween-80",95 % of control
same,T/C,"dose: 200.0 mg/kg/injection, schedule: Q01DX001 (ip), vehicle: saline with Tween-80",100 % of control
same,T/C,"dose: 400.0 mg/kg/injection, schedule: Q01DX001 (ip), vehicle: saline with Tween-80",96 % of control
O=C(NC(Cc1ccc(Cl)cc1)C(=O)O)c1cccc(Br)c1 (centres undefined),T/C,[12],102 % of control
same,T/C,[13],100 % of control
same,T/C,[14],110 % of control
COc1cc2c3c(c1)/C(=N\Nc1ccccc1)CCN3CCC2,T/C,"dose: 3.12 mg/kg/injection, schedule: Q01DX009 (ip), vehicle: DMSO",99 % of control
CC1C(=O)C(C)C(c2ccccc2Cl)OC1c1ccccc1Cl (centres undefined),T/C,[3],112 % of control
same,T/C,[4],102 % of control
same,T/C,[5],96 % of control
CC1OCN2C(C)CCCC12 (centres undefined),T/C,"dose: 50.0 mg/kg/injection, schedule: Q01DX005 (ip), vehicle: saline",108 % of control
same,T/C,"dose: 100.0 mg/kg/injection, schedule: Q01DX005 (ip), vehicle: saline",106 % of control
CC1C(=O)OC2C1CCC1(C)C=CC(=O)C(C)C21 (centres undefined),T/C,"dose: 12.5 mg/kg/injection, schedule: Q04DX002 (ip), vehicle: saline with Tween-80",110 % of control
same,T/C,"dose: 25.0 mg/kg/injection, schedule: Q04DX002 (ip), vehicle: saline with Tween-80",103 % of control
Clc1ccc(-c2nc3ccccc3nc2-c2ccc(Cl)cc2)cc1,T/C,[9],101 % of control
same,T/C,[10],111 % of control
same,T/C,[11],106 % of control
CC(=N\[O-])/C(C)=N/O.CC(=N\[O-])/C(C)=N/O.CC(=O)[O-].CC(=O)[O-].O.[Rh+2].[Rh+2],T/C,"dose: 6.25 mg/kg/injection, schedule: Q01DX009 (ip), vehicle: saline with Tween-80",123 % of control
same,T/C,"dose: 12.5 mg/kg/injection, schedule: Q01DX009 (ip), vehicle: saline with Tween-80",119 % of control
[Se]=[Nb]=[Se],T/C,"dose: 60.0 mg/kg/injection, schedule: Q01DX005 (ip), vehicle: acid diluted with saline",89 % of control
same,T/C,"dose: 120.0 mg/kg/injection, schedule: Q01DX005 (ip), vehicle: acid diluted with saline",93 % of control
same,T/C,"dose: 240.0 mg/kg/injection, schedule: Q01DX005 (ip), vehicle: acid diluted with saline",90 % of control
O=S(CCCl)CCCl,T/C,"dose: 6.25 mg/kg/injection, schedule: Q01DX001 (ip), vehicle: saline",117 % of control
same,T/C,"dose: 12.5 mg/kg/injection, schedule: Q01DX001 (ip), vehicle: saline",152 % of control
O=C(C(=O)c1cccc(C(=O)C(=O)c2ccccc2)c1)c1ccccc1,T/C,[1],104 % of control
same,T/C,[2],96 % of control
same,T/C,[15],92 % of control
Cc1ccc(S(=O)(=O)Nc2cccc3c(NS(=O)(=O)c4ccc(C)cc4)cccc23)cc1,T/C,[7],100 % of control
same,T/C,"dose: 100.0 mg/kg/injection, schedule: Q04DX003 (ip), vehicle: saline with Tween-80",100 % of control
same,T/C,[8],95 % of control
same,T/C,"dose: 200.0 mg/kg/injection, schedule: Q04DX003 (ip), vehicle: saline with Tween-80",90 % of control
same,T/C,"dose: 400.0 mg/kg/injection, schedule: Q04DX003 (ip), vehicle: saline with Tween-80",100 % of control
COc1ccc(C2COc3c(ccc(O)c3C)C2)cc1OC (centres undefined),T/C,[1],97 % of control
same,T/C,[2],97 % of control
same,T/C,[15],95 % of control
COc1cc([C@H]2c3c(cc(OC)c(OC)c3OC)CC3COC(=O)[C@@H]32)cc2c1OCO2 (some centres undefined),T/C,[1],98 % of control
same,T/C,[2],92 % of control
same,T/C,[15],90 % of control
CC(=O)Nc1ccc(OCCCN2CCOCC2)cc1,T/C,"dose: 100.0 mg/kg/injection, schedule: Q04DX002 (ip), vehicle: Klucel (hydroxypropylcellulose) (HPC)",102 % of control
same,T/C,"dose: 200.0 mg/kg/injection, schedule: Q04DX002 (ip), vehicle: Klucel (hydroxypropylcellulose) (HPC)",101 % of control
same,T/C,"dose: 400.0 mg/kg/injection, schedule: Q04DX002 (ip), vehicle: Klucel (hydroxypropylcellulose) (HPC)",95 % of control
[Se]=[Re]=[Se],T/C,[1],96 % of control
same,T/C,[2],98 % of control
same,T/C,[15],109 % of control
COc1cc([N+](=O)[O-])c(S(=O)(=O)O)cc1N=N/C=N/Nc1cc(S(=O)(=O)O)c([N+](=O)[O-])cc1OC,T/C,[12],118 % of control
same,T/C,[13],110 % of control
same,T/C,[14],108 % of control
CC1(C)OCC2OCOC(C3CC(=O)NC(=O)C3)C2O1 (centres undefined),T/C,"dose: 100.0 mg/kg/injection, schedule: Q04DX002 (ip), vehicle: suspension in saline",102 % of control
same,T/C,"dose: 200.0 mg/kg/injection, schedule: Q04DX002 (ip), vehicle: suspension in saline",100 % of control
same,T/C,"dose: 400.0 mg/kg/injection, schedule: Q04DX002 (ip), vehicle: suspension in saline",102 % of control
COc1ccc(/C(=C(\c2ccccc2)[N+](=O)[O-])c2ccc(OCCN3CCCC3)cc2)cc1,T/C,"dose: 25.0 mg/kg/injection, schedule: Q01DX009 (ip), vehicle: saline with Tween-80",104 % of control
same,T/C,[6],100 % of control

# Source: PubChem BioAssay AID330 (DTP/NCI, 2004)
